From patent US10428083B2, “Heterocyclylmethyl-thienouracile as antagonists of the adenosine-A2B-receptor” (BAYER PHARMA AKTIENGESELLSCHAFT, priority 2015, dated 2019)

Biological target: human adenosine A2b receptor (Homo sapiens (Human), UniProt P29275)
Assay: Cellular in vitro reporter gene test for A2b receptor activity (CHO-K1, CRE-luciferase, NECA stimulation)
Assay type: cell-based
Details: recombinant CHO-K1 cell line, CRE-luciferase reporter, antagonism of EC50 concentration of NECA; in some cases means of several determinations, rounded to two significant figures; read-out: A2b receptor IC50
Summary of the method: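 CHO-K1 cells with CRE-driven luciferase; antagonists co-incubated with NECA at its EC50, determined in a pre-experiment on each test day. Luciferase read by luminescence 3 h after NECA addition.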

human adenosine A2b receptor, sequence (P29275 whole entry): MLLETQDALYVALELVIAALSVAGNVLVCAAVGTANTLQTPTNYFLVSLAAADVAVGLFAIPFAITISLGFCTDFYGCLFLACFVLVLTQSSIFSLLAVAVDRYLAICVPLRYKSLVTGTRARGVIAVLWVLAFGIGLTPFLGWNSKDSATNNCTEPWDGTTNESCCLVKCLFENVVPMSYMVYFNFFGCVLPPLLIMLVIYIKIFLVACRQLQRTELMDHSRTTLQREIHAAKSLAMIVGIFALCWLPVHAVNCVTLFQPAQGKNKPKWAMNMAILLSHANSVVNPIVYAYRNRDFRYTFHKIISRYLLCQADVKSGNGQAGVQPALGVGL

**Q.** Which IC50 does the source give for `Cc1c(CN2CCNC2=S)sc2c1c(=O)n(C(C)C)c(=O)n2C` [Example 297, 3-Isopropyl-1,5-dimethyl-6-[(2-thioxoimidazolidin-1-yl)methyl]thieno[2,3-d]pyrimidine-2,4(1H,3H)-dione] here?
**A.** 17 nM

**Q.** `Cc1c(CN2CCNC2=S)sc2c1c(=O)n(C(C)C)c(=O)n2CCCF` [Example 298, 1-(3-Fluoropropyl)-3-isopropyl-5-methyl-6-[(2-thioxoimidazolidin-1-yl)methyl]thieno[2,3-d]pyrimidine-2,4(1H,3H)-dione] was tested. Which IC50 did it give?
**A.** 2.4 nM

**Q.** For `CCOCCn1c(=O)c2c(C)c(CN3CCNC3=S)sc2n(CCC(F)(F)F)c1=O` [Example 301, 3-(2-Ethoxyethyl)-5-methyl-6-[(2-thioxoimidazolidin-1-yl)methyl]-1-(3,3,3-trifluoropropyl)thieno[2,3-d]pyrimidine-2,4(1H,3H)-dione], which IC50 is on record?
**A.** 6.5 nM

**Q.** Which IC50 does the source give for `CCOCCn1c(=O)c2c(C)c(CN3CCNC3=S)sc2n(CCOC)c1=O` [Example 302, 3-(2-Ethoxyethyl)-1-(2-methoxyethyl)-5-methyl-6-[(2-thioxoimidazolidin-1-yl)methyl]thieno[2,3-d]pyrimidine-2,4(1H,3H)-dione] here?
**A.** 14 nM

**Q.** Which IC50 does the source give for `Cc1c(CN2CCN(C(C)C)C2=S)sc2c1c(=O)n(CC(C)C)c(=O)n2CCCF` [Example 304, 1-(3-Fluoropropyl)-3-isobutyl-6-[(3-isopropyl-2-thioxoimidazolidin-1-yl)methyl]-5-methylthieno[2,3-d]pyrimidine-2,4(1H,3H)-dione] here?
**A.** 73 nM

**Q.** `Cc1c(CN2CCN(C(C)C)C2=S)sc2c1c(=O)n(CC(F)(F)F)c(=O)n2C` [Example 305, 6-[(3-Isopropyl-2-thioxoimidazolidin-1-yl)methyl]-1,5-dimethyl-3-(2,2,2-trifluoroethyl)thieno[2,3-d]pyrimidine-2,4(1H,3H)-dione] was tested. Which IC50 did it give?
**A.** 140 nM

**Q.** With `Cc1c(CN2CCN(C)C2=S)sc2c1c(=O)n(CC(F)(F)F)c(=O)n2CCC(F)(F)F` [Example 306, 5-Methyl-6-[(3-methyl-2-thioxoimidazolidin-1-yl)methyl]-3-(2,2,2-trifluoroethyl)-1-(3,3,3-trifluoropropyl)thieno[2,3-d]pyrimidine-2,4(1H,3H)-dione] as the compound, how does the IC50 read?
**A.** 5.9 nM

**Q.** `CCn1c(=O)c2c(C)c(CN3CCNC3=O)sc2n(CF)c1=O` [Example 307, 3-Ethyl-1-(fluoromethyl)-5-methyl-6-[(2-oxoimidazolidin-1-yl)methyl]thieno[2,3-d]pyrimidine-2,4(1H,3H)-dione] was tested. Which IC50 did it give?
**A.** 8.1 nM

**Q.** With `CCn1c(=O)c2c(C)c(CN3CCNC3=O)sc2n(CCOC2CCCC2)c1=O` [Example 308, 1-[2-(Cyclopentyloxy)ethyl]-3-ethyl-5-methyl-6-[(2-oxoimidazolidin-1-yl)methyl]thieno[2,3-d]pyrimidine-2,4(1H,3H)-dione] as the compound, how does the IC50 read?
**A.** 140 nM

**Q.** How did the IC50 turn out when `CCSCCn1c(=O)n(CC)c(=O)c2c(C)c(CN3CCNC3=O)sc21` [Example 309, 3-Ethyl-1-[2-(ethylsulphanyl)ethyl]-5-methyl-6-[(2-oxoimidazolidin-1-yl)methyl]thieno[2,3-d]pyrimidine-2,4(1H,3H)-dione] was run?
**A.** 36 nM

**Q.** For `CCn1c(=O)c2c(C)c(CN3CCNC3=O)sc2n(CCS(C)(=O)=O)c1=O` [Example 310, 3-Ethyl-5-methyl-1-[2-(methylsulphonyl)ethyl]-6-[(2-oxoimidazolidin-1-yl)methyl]thieno[2,3-d]pyrimidine-2,4(1H,3H)-dione], which IC50 is on record?
**A.** 370 nM

**Q.** For `CCn1c(=O)c2c(C)c(CN3CCNC3=O)sc2n(CCCOC)c1=O` [Example 311, 3-Ethyl-1-(3-methoxypropyl)-5-methyl-6-[(2-oxoimidazolidin-1-yl)methyl]thieno[2,3-d]pyrimidine-2,4(1H,3H)-dione], which IC50 is on record?
**A.** 31 nM

**Q.** How did the IC50 turn out when `Cc1c(CN2CCNC2=O)sc2c1c(=O)n(C(C)C)c(=O)n2C` [Example 312, 3-Isopropyl-1,5-dimethyl-6-[(2-oxoimidazolidin-1-yl)methyl]thieno[2,3-d]pyrimidine-2,4(1H,3H)-dione] was run?
**A.** 22 nM
